According to patent publication US6780872B2, “Tricyclic dihydropyrazolone and tricyclic dihydroisoxazolone potassium channel openers” (Abbott Laboratories, priority 2000, dated 2004):

Test system: guinea-pig urinary bladder (GPB) cells
Test: Membrane hyperpolarization (MHP) assay, DiBAC(4)3 dye, FLIPR
Format: cell-based
Settings: Cavia porcellus; for Emax: maximal steady-state hyperpolarization in GPB cells, normalized to response with 10 μM P1075 (=100%); for EC50: membrane hyperpolarization in GPB cells, concentration eliciting 50% of the maximal response of the test sample
Procedure: Compounds were evaluated for potassium channel opening activity using primary cultured guinea-pig urinary bladder (GPB) cells.
For the preparation of urinary bladder smooth muscle cells, urinary bladders were removed from male guinea-pigs (Hartley, Charles River, Wilmington, Mass.) weighing 300-400 g and placed in ice-cold Ca^2+-free Krebs solution (Composition, mM: KCl, 2.7; KH2PO4, 1.5; NaCl, 75; Na2HPO4, 9.6; Na2HPO4.7H2O, 8; MgSO4, 2; glucose, 5; HEPES, 10; pH 7.4). Cells were isolated by enzymatic dissociation as previously described with minor modifications in (Klockner, U. and Isenberg, G., Pflugers Arch. 1985, 405, 329-339), hereby incorporated by reference. The bladder was cut into small sections and incubated in 5 mL of the Kreb's solution containing 1 mg/mL collagenase (Sigma, St. Louis, Mo.) and 0.2 mg/mL pronase (Calbiochem, La Jolla, Calif.) with continuous stirring in a cell incubator for 30 minutes. The mixture was then centrifuged at 1300×g for 5 minutes, and the pellet resuspended in Dulbecco's PBS (GIBCO, Gaithersburg, Md.) and recentrifuged to remove residual enzyme. The cell pellet was resuspended in 5 mL growth media (composition: Dulbecco's modified Eagle's medium supplemented with 10% fetal bovine serum, 100 units/mL penicillin, 100 units/mL streptomycin and […] amphotericin B) and further dissociated by pipetting the suspension through a flame-polished Pasteur pipette and passing it through a polypropylene mesh membrane (Spectrum, Houston, Tex.). The cell density was adjusted to 100,000 cells/mL by resuspension in growth media. Cells were plated in clear-bottomed black 96-well plates (Packard) for membrane potential studies at a density of 20,000 cells/well and maintained in a cell incubator with 90% air: 10% CO2 until confluent. Cells were confirmed to be of smooth muscle type by cytoskeletal staining using a monoclonal mouse anti human-α-smooth muscle actin (Biomeda, Foster City, Calif.).
Functional activity at potassium channels was measured by evaluating changes in membrane potential using the bis-oxonol dye DiBAC(4)3 (Molecular Probes) in a 96-well cell-based kinetic assay system, Fluorescent Imaging Plate Reader (FLIPR) (K. S. Schroeder et al., J. Biomed. Screen., v. 1 pp. 7581 (1996)), hereby incorporated by reference. DiBAC(4) is an anionic potentiometric probe which partitions between cells and extracellular solution in a membrane potential-dependent manner. With increasing membrane potential (for example, K^+ depolarization), the probe further partitions into the cell; this is measured as an increase in fluorescence due to dye interaction with intracellular lipids and proteins. Conversely, decreasing membrane potential (hyperpolarization by potassium channel openers) evokes a decrease in fluorescence.
Confluent guinea-pig urinary bladder cells cultured in black clear-bottomed 96-well plates were rinsed twice with […] assay buffer (composition, mM: HEPES, 20; NaCl, 120; KCl, 2; CaCl2, 2; MgCl2, 1; glucose, 5; pH 7.4 at 25° C.) containing 5 μM DiBAC(4) and incubated with […] of the buffer in a cell incubator for 30 minutes at 37° C. to ensure dye distribution across the membrane. After recording the baseline fluorescence for 5 minutes, the reference or test compounds, prepared at 10 times the concentration in the assay buffer, were added directly to the wells. Changes in fluorescence were monitored for an additional 25 minutes. Hyperpolarization responses were corrected for any background noise and were normalized to the response observed with 10 μM of the reference compound P1075, N″-cyano-N-(tert-pentyl)-N′-(3-pyridinyl)guanidine, which was assigned as 100%. P1075 is a potent opener of smooth muscle KATP channels (Quast et al., Mol. Pharmacol., v. 43 pp. 474-481 (1993)) and was prepared using the procedures described in (Manley, J. Med. Chem. (1992) 35, 2327-2340), hereby incorporated by reference. […]

SMILES | Emax | EC50
Cn1[nH]c(=O)c2c1NC1=C(C(=O)CC1)C2c1ccc(Cl)c(Cl)c1 (centres unmarked) [Example 13, 4-(3,4-dichlorophenyl)-1-methyl-1,2,4,6,7,8-hexahydrocyclopenta[b]pyrazolo[4,3-e]pyridine-3,5-dione] | 101% | 0.67 µM
Cn1[nH]c(=O)c2c1NC1=C(C(=O)CC1)C2c1ccc(OC(F)(F)F)cc1 (centres unmarked) [Example 7, 1-methyl-4-[4-(trifluoromethoxy)phenyl]-1,2,4,6,7,8-hexahydrocyclopenta[b]pyrazolo[4,3-e]pyridine-3,5-dione] | – | > 10 µM
O=C1CCC2=C1C(c1ccc(F)c(Br)c1)c1c([nH][nH]c1=O)N2 (centres unmarked) [Example 2, 4-(3-bromo-4-fluorophenyl)-1,2,4,6,7,8-hexahydrocyclopenta[b]pyrazolo[4,3-e]pyridine-3,5-dione] | 90% | 2.77 µM
Cn1[nH]c(=O)c2c1NC1=C(C(=O)C(C)(C)CC1)C2c1ccc(F)c(I)c1 (centres unmarked) [Example 23, 4-(4-fluoro-3-iodophenyl)-1,6,6-trimethyl-4,7,8,9-tetrahydro-1H-pyrazolo[3,4-b]quinoline-3,5(2H,6H)-dione] | 90% | 0.07 µM
Cn1[nH]c(=O)c2c1NC1=C(C(=O)CC1)C2c1ccc(F)c(C(F)(F)F)c1 (centres unmarked) [Example 9, 4-[4-fluoro-3-(trifluoromethyl)phenyl]-1-methyl-1,2,4,6,7,8-hexahydrocyclopenta[b]pyrazolo[4,3-e]pyridine-3,5-dione] | 89% | 0.68 µM
Cn1[nH]c(=O)c2c1NC1=C(C(=O)CCC1)C2c1ccc(F)c(Br)c1 (centres unmarked) [Example 18, 4-(3-bromo-4-fluorophenyl)-1-methyl-4,7,8,9-tetrahydro-1H-pyrazolo[3,4-b]quinoline-3,5(2H,6H)-dione] | 80% | 1.97 µM
Cn1[nH]c(=O)c2c1NC1=C(C(=O)C(C)(C)CC1)C2c1ccc(F)c(Br)c1 (centres unmarked) [Example 22, 4-(3-bromo-4-fluorophenyl)-1,6,6-trimethyl-4,7,8,9-tetrahydro-1H-pyrazolo[3,4-b]quinoline-3,5(2H,6H)-dione] | 105% | 0.33 µM
Cn1[nH]c(=O)c2c1NC1=C(C(=O)CC1)C2c1ccc(F)c(-c2ccco2)c1 (centres unmarked) [Example 14, 4-[4-fluoro-3-(2-furyl)phenyl]-1-methyl-1,2,4,6,7,8-hexahydrocyclopenta[b]pyrazolo[4,3-e]pyridine-3,5-dione] | – | > 10 µM
Cn1[nH]c2c(c1=O)C(c1ccc(F)c(Br)c1)C1=C(CCC1=O)N2 (centres unmarked) [Example 19, 4-(3-bromo-4-fluorophenyl)-2-methyl-1,2,4,6,7,8-hexahydrocyclopenta[b]pyrazolo[4,3-e]pyridine-3,5-dione] | – | > 10 µM
Cn1[nH]c(=O)c2c1NC1=C(C(=O)CC1)C2c1ccc2nonc2c1 (centres unmarked) [Example 16, 4-(2,1,3-benzoxadiazol-5-yl)-1-methyl-1,2,4,6,7,8-hexahydrocyclopenta[b]pyrazolo[4,3-e]pyridine-3,5-dione] | – | > 10 µM
Cc1ccc(C2C3=C(CCC3=O)Nc3c2c(=O)[nH]n3C)cc1I (centres unmarked) [Example 11, 4-(3-iodo-4-methylphenyl)-1-methyl-1,2,4,6,7,8-hexahydrocyclopenta[b]pyrazolo[4,3-e]pyridine-3,5-dione] | 109% | 0.53 µM
O=C1CCC2=C1C(c1ccc(F)c(Br)c1)c1c([nH]n(-c3ccccc3)c1=O)N2 (centres unmarked) [Example 20, 4-(3-bromo-4-fluorophenyl)-2-phenyl-1,2,4,6,7,8-hexahydrocyclopenta[b]pyrazolo[4,3-e]pyridine-3,5-dione] | 48% | > 10 µM
CCn1[nH]c(=O)c2c1NC1=C(C(=O)CC1)C2c1ccc(F)c(Br)c1 (centres unmarked) [Example 4, 4-(3-bromo-4-fluorophenyl)-1-ethyl-1,2,4,6,7,8-hexahydrocyclopenta[b]pyrazolo[4,3-e]pyridine-3,5-dione] | 103% | 0.27 µM
Cn1[nH]c(=O)c2c1NC1=C(C2c2ccc(F)c(Br)c2)S(=O)(=O)CC1 (centres unmarked) [Example 21, 4-(3-bromo-4-fluorophenyl)-1-methyl-1,2,4,6,7,8-hexahydro-3H-pyrazolo[3,4-b]thieno[2,3-e]pyridin-3-one 5,5-dioxide] | – | > 10 µM
Cc1ccc(C2C3=C(CCC3=O)Nc3c2c(=O)[nH]n3C)cc1Br (centres unmarked) [Example 8, 4-(3-bromo-4-methylphenyl)-1-methyl-1,2,4,6,7,8-hexahydrocyclopenta[b]pyrazolo[4,3-e]pyridine-3,5-dione] | 83% | 0.48 µM
O=C1CCC2=C1C(c1ccc(F)c(Br)c1)c1c(n(-c3ccccn3)[nH]c1=O)N2 (centres unmarked) [Example 6, 4-(3-bromo-4-fluorophenyl)-1-(2-pyridinyl)-1,2,4,6,7,8-hexahydrocyclopenta[b]pyrazolo[4,3-e]pyridine-3,5-dione] | – | > 10 µM
Cn1[nH]c(=O)c2c1NC1=C(C(=O)COC1)C2c1ccc(F)c(Br)c1 (centres unmarked) [Example 26, 4-(3-bromo-4-fluorophenyl)-1-methyl-1,2,4,9-tetrahydropyrano[3,4-b]pyrazolo[4,3-e]pyridine-3,5(6H,8H)-dione] | 99% | 0.05 µM
Cn1[nH]c(=O)c2c1NC1=C(C(=O)C(C)(C)CC1)C2c1ccc(Cl)c(Cl)c1 (centres unmarked) [Example 24, 4-(3,4-dichlorophenyl)-1,6,6-trimethyl-4,7,8,9-tetrahydro-1H-pyrazolo[3,4-b]quinoline-3,5(2H,6H)-dione] | 82% | 0.18 µM
Cn1[nH]c(=O)c2c1NC1=C(C(=O)C(C)(C)CC1)C2c1ccc(F)c(-c2ccco2)c1 (centres unmarked) [Example 25, 4-[4-fluoro-3-(2-furyl)phenyl]-1,6,6-trimethyl-4,7,8,9-tetrahydro-1H-pyrazolo[3,4-b]quinoline-3,5(2H,6H)-dione] | 78% | 3.2 µM
Cn1[nH]c(=O)c2c1NC1=C(C(=O)CC1)C2c1ccc(F)c(Br)c1 (centres unmarked) [Example 1, 4-(3-bromo-4-fluorophenyl)-1-methyl-1,2,4,6,7,8-hexahydrocyclopenta[b]pyrazolo[4,3-e]pyridine-3,5-dione] | 91% | 0.55 µM
Cn1[nH]c(=O)c2c1NC1=C(C(=O)OC1)C2c1ccc(F)c(Br)c1 (centres unmarked) [Example 32, 4-(3-bromo-4-fluorophenyl)-1-methyl-4,8-dihydro-1H-furo[3,4-b]pyrazolo[4,3-e]pyridine-3,5(2H,7H)-dione] | 73% | 0.52 µM
CC(C)(C)n1[nH]c(=O)c2c1NC1=C(C(=O)CC1)C2c1ccc(F)c(Br)c1 (centres unmarked) [Example 5, 4-(3-bromo-4-fluorophenyl)-1-tert-butyl-1,2,4,6,7,8-hexahydrocyclopenta[b]pyrazolo[4,3-e]pyridine-3,5-dione] | – | > 10 µM
O=C1CCCC2=C1C(c1ccc(F)c(Br)c1)c1c([nH][nH]c1=O)N2 (centres unmarked) [Example 3, 4-(3-bromo-4-fluorophenyl)-4,7,8,9-tetrahydro-1H-pyrazolo[3,4-b]quinoline-3,5(2H,6H)-dione] | 82% | 1.72 µM
Cn1[nH]c(=O)c2c1NC1=C(C(=O)CC1)C2c1csc([N+](=O)[O-])c1 (centres unmarked) [Example 15, 1-methyl-4-(5-nitro-3-thienyl)-1,2,4,6,7,8-hexahydrocyclopenta[b]pyrazolo[4,3-e]pyridine-3,5-dione] | 58% | 7.7 µM
